System: 556581-035-R-J1 tumor spheroid viability, % test/control
Experiment: Anticancer human tumor 556581-035-R-J1 patient-derived ovarian carcinoma cell line growth inhibition
Details: spheroids with HUVEC and MSC; for IC50: curve of first compound; for viability, T/C: stronger effect = lower value
Text: Multicellular complex tumor spheroid response to DNA repair inhibitors in combination with DNA-damaging drugs
This study explores the anticancer activities of DNA-damaging drugs and inhibitors of DNA damage repair, both as single agents and in combinations. Complex tumor spheroids comprised of malignant cells, endothelial cells and mesenchymal stem cells served as an in vitro model for human solid tumors. This model system incorporates physiologically relevant features and patient-derived or established malignant cell lines with clinically relevant genetic alterations from many tumor types. Twenty-six patient-derived or established malignant cell lines were evaluated representing sarcoma, melanoma, small cell lung cancer (SCLC), non-small cell lung cancer (NSCLC), as well as bladder, ovarian and pancreatic cancers. The concentration ranges selected for each drug and investigational agent were based upon clinically achievable concentrations if the clinical Cmax of the agent was known.
Compounds. The drugs and compounds olaparib (NSC753686), talazoparib (NSC767125), berzosertib (NSC777718), elimusertib (NSC800525), nedisertib (NSC802822), VX-984 (NSC792969), AZD-1390 (NSC803789), temozolomide (NSC362856), topotecan (NSC609699), trabectedin (NSC813783), staurosporine (NSC755774), and gemcitabine (NSC613327) were obtained from the National Cancer Institute (NCI) Developmental Therapeutics Program Chemical Repository. The FDA-approved anticancer drug set is available from the Developmental Therapeutics Program at https://dtp.cancer.gov/organization/dscb/obtaining/available_plates.htm. […] The stock solutions were prepared in dimethyl sulfoxide (DMSO, Sigma-Aldrich, St. Louis, MO, cat. D2650) at 400-fold the tested concentration and stored at -70 degrees C. Prior to their use, the stock solutions were diluted in fresh medium and the final DMSO concentration in the assay was 0.25% (v/v). All drugs and investigational agents were tested over a range starting from a high concentration at or near the clinical Cmax and decreasing in half-log increments. If the clinical Cmax for an agent had not been determined, the highest concentration tested was 10 microM.
Cell Lines. The patient-derived cancer cell (PDC) lines: 156681-154-R-J1-PDC, 283228-195-R-J1-PDC, 287954-098-R-J1-PDC, 292921-168-R-J2-PDC, 349418-098-R-PDC, 425362-245-T-J1-PDC, 556581-035-R-J1-PDC, and BL0293-F563-PDC were received from the NCI Patient-Derived Models Repository (PDMR, https://pdmr.cancer.gov). The established cell lines HS-SY-2 (RRID:CVCL_8719), MPNST, and SYO-1 (RRID:CVCL_7146) were obtained from the Sloan Kettering Institute. The alveolar soft parts sarcoma cell line ASPS-1 (RRID:CVCL_S738) was established at the NCI and grown from internal seed stocks. The following established cell lines were purchased from the American Type Culture Collection (ATCC, Manassas, VA): G-401 (ATCC, cat. CRL-1441, RRID:CVCL_0270), SW982 (ATCC, cat. HTB-93, RRID:CVCL_1734), VA-ES-BJ (ATCC, cat. CRL-2138, RRID:CVCL_1785), NCI-H719 (ATCC, cat. CRL-5837, RRID:CVCL_1582), NCI-H196 (ATCC, cat. CRL-5823, RRID:CVCL_1509), NCI-H841 (ATCC, cat. CRL-5845, RRID:CVCL_1595), NCI-H1618 (ATCC, cat. CRL-5879, RRID:CVCL_1480), NCI-H1876 (ATCC, cat. CRL-5902, RRID:CVCL_1503), DMS 114 (ATCC, cat. CRL-2066; RRID:CVCL_1174), NCI-H211 (ATCC, cat. CRL-5824; RRID:CVCL_1529), and SW 1271 (ATCC, cat. CRL-2177, RRID:CVCL_1716). The small cell lung cancer cell line COR-L88 was purchased from Sigma-Aldrich (cat. 92031917-1VL, RRID:CVCL_1141). The non-small cell lung cancer cell lines NCI-H226 (RRID:CVCL_1544) and NCI-H322M (RRID:CVCL_1557) were established at the NCI and grown from internal seed stocks. Pooled donor human umbilical vein endothelial cells (HUVEC, Lonza, cat. CC-2519) and human mesenchymal stem cells (hMSC, Lonza, cat. PT-2501) were purchased from Lonza (Walkersville, MD).
Cell Culture. All cells were maintained in an incubator at 37 degrees C and 5% CO2 with 95% humidity. […]
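Further: spheroids exposed to compounds for 7 days before viability read.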

Compound: Cc1cc(C)c(CNC(=O)c2cc(-c3ccc(CN4CCOCC4)cc3)cc3c2cnn3C2CCCC2)c(=O)[nH]1 + CC[C@@]1(O)C(=O)OCc2c1cc1n(c2=O)Cc2cc3c(CN(C)C)c(O)ccc3nc2-1
- IC50 (second compound 0.003 µM): > 10 µM
- IC50 (second compound 0.00949 µM): > 10 µM
- IC50 (second compound 0.03 µM): > 10 µM
- IC50 (second compound 0.0949 µM): 4.51 µM
- IC50 (second compound 0.3 µM): < 0.0316 µM
- viability, T/C (second compound 0.003 µM, first compound 0.0316 µM): 97%
- viability, T/C (second compound 0.003 µM, first compound 0.1 µM): 85.4%
- viability, T/C (second compound 0.003 µM, first compound 0.316 µM): 89%
- viability, T/C (second compound 0.003 µM, first compound 1 µM): 84%
- viability, T/C (second compound 0.003 µM, first compound 3.16 µM): 99.7%
- viability, T/C (second compound 0.003 µM, first compound 10 µM): 87.4%
- viability, T/C (second compound 0.00949 µM, first compound 0.0316 µM): 95.9%
- viability, T/C (second compound 0.00949 µM, first compound 0.1 µM): 87.7%
- viability, T/C (second compound 0.00949 µM, first compound 0.316 µM): 78.8%
- viability, T/C (second compound 0.00949 µM, first compound 1 µM): 72.5%
- viability, T/C (second compound 0.00949 µM, first compound 3.16 µM): 87.4%
- viability, T/C (second compound 0.00949 µM, first compound 10 µM): 83.8%
- viability, T/C (second compound 0.03 µM, first compound 0.0316 µM): 74.2%
- viability, T/C (second compound 0.03 µM, first compound 0.1 µM): 72.9%
- viability, T/C (second compound 0.03 µM, first compound 0.316 µM): 70.3%
- viability, T/C (second compound 0.03 µM, first compound 1 µM): 67.1%
- viability, T/C (second compound 0.03 µM, first compound 3.16 µM): 66.8%
- viability, T/C (second compound 0.03 µM, first compound 10 µM): 70.4%
- viability, T/C (second compound 0.0949 µM, first compound 0.0316 µM): 60.1%
- viability, T/C (second compound 0.0949 µM, first compound 0.1 µM): 56.6%
- viability, T/C (second compound 0.0949 µM, first compound 0.316 µM): 57.1%
- viability, T/C (second compound 0.0949 µM, first compound 1 µM): 56.3%
- viability, T/C (second compound 0.0949 µM, first compound 3.16 µM): 53.5%
- viability, T/C (second compound 0.0949 µM, first compound 10 µM): 43.1%
- viability, T/C (second compound 0.3 µM, first compound 0.0316 µM): 19.3%
- viability, T/C (second compound 0.3 µM, first compound 0.1 µM): 22.9%
- viability, T/C (second compound 0.3 µM, first compound 0.316 µM): 19.6%
- viability, T/C (second compound 0.3 µM, first compound 1 µM): 19.2%
- viability, T/C (second compound 0.3 µM, first compound 3.16 µM): 15.6%
- viability, T/C (second compound 0.3 µM, first compound 10 µM): 11.3%

Compound: Cc1sc2c(c1C)C(c1ccc(Cl)cc1)=NC(CC(=O)Nc1ccc(O)cc1)c1nnc(C)n1-2 (stereo not given) + CC[C@@]1(O)C(=O)OCc2c1cc1n(c2=O)Cc2cc3c(CN(C)C)c(O)ccc3nc2-1
- IC50 (second compound 0.003 µM): > 3 µM
- IC50 (second compound 0.00949 µM): > 3 µM
- IC50 (second compound 0.03 µM): > 3 µM
- IC50 (second compound 0.0949 µM): 0.281 µM
- IC50 (second compound 0.3 µM): < 0.00949 µM
- viability, T/C (second compound 0.003 µM, first compound 0.00949 µM): 103%
- viability, T/C (second compound 0.003 µM, first compound 0.03 µM): 85.4%
- viability, T/C (second compound 0.003 µM, first compound 0.0949 µM): 83.8%
- viability, T/C (second compound 0.003 µM, first compound 0.3 µM): 74.8%
- viability, T/C (second compound 0.003 µM, first compound 0.949 µM): 77.5%
- viability, T/C (second compound 0.003 µM, first compound 3 µM): 74.2%
- viability, T/C (second compound 0.00949 µM, first compound 0.00949 µM): 99.4%
- viability, T/C (second compound 0.00949 µM, first compound 0.03 µM): 84.3%
- viability, T/C (second compound 0.00949 µM, first compound 0.0949 µM): 74%
- viability, T/C (second compound 0.00949 µM, first compound 0.3 µM): 68.8%
- viability, T/C (second compound 0.00949 µM, first compound 0.949 µM): 71.4%
- viability, T/C (second compound 0.00949 µM, first compound 3 µM): 64.2%
- viability, T/C (second compound 0.03 µM, first compound 0.00949 µM): 74.3%
- viability, T/C (second compound 0.03 µM, first compound 0.03 µM): 76.5%
- viability, T/C (second compound 0.03 µM, first compound 0.0949 µM): 68.8%
- viability, T/C (second compound 0.03 µM, first compound 0.3 µM): 66.7%
- viability, T/C (second compound 0.03 µM, first compound 0.949 µM): 65.6%
- viability, T/C (second compound 0.03 µM, first compound 3 µM): 54.7%
- viability, T/C (second compound 0.0949 µM, first compound 0.00949 µM): 59.3%
- viability, T/C (second compound 0.0949 µM, first compound 0.03 µM): 58.4%
- viability, T/C (second compound 0.0949 µM, first compound 0.0949 µM): 56.2%
- viability, T/C (second compound 0.0949 µM, first compound 0.3 µM): 50.7%
- viability, T/C (second compound 0.0949 µM, first compound 0.949 µM): 39.6%
- viability, T/C (second compound 0.0949 µM, first compound 3 µM): 41.4%
- viability, T/C (second compound 0.3 µM, first compound 0.00949 µM): 16.4%
- viability, T/C (second compound 0.3 µM, first compound 0.03 µM): 16.9%
- viability, T/C (second compound 0.3 µM, first compound 0.0949 µM): 12.9%
- viability, T/C (second compound 0.3 µM, first compound 0.3 µM): 17.1%
- viability, T/C (second compound 0.3 µM, first compound 0.949 µM): 18.6%
- viability, T/C (second compound 0.3 µM, first compound 3 µM): 11.3%

— PubChem BioAssay AID1845199 (Molecular Pharmacology Branch, DTP, NCI, 2023)
